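Compound exposure: 48 hours, 5 concentrations, 96-well plates. Here, GI50 denotes the concentration required for 50% inhibition of growth. TGI is the concentration that stops growth completely.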
What was measured:
Test in all cases: DTP human tumour cell line panel, 48 h
UO-31 renal = tested on: UO-31 renal
SK-OV-3 ovarian = tested on: SK-OV-3 ovarian
ACHN renal = tested on: ACHN renal
IGROV1 ovarian = tested on: IGROV1 ovarian
CAKI-1 renal = tested on: CAKI-1 renal
RPMI-8226 leukemia = tested on: RPMI-8226 leukemia
HCC-2998 colon = tested on: HCC-2998 colon
SR leukemia = tested on: SR leukemia
SK-MEL-28 melanoma = tested on: SK-MEL-28 melanoma
U251 CNS = tested on: U251 CNS

Row | SMILES | TGI (UO-31 renal) | TGI (SK-OV-3 ovarian) | TGI (ACHN renal) | TGI (IGROV1 ovarian) | TGI (CAKI-1 renal) | TGI (RPMI-8226 leukemia) | TGI (HCC-2998 colon) | TGI (SR leukemia) | TGI (SK-MEL-28 melanoma) | TGI (U251 CNS) | GI50 (UO-31 renal) | GI50 (SK-OV-3 ovarian) | GI50 (ACHN renal) | GI50 (IGROV1 ovarian) | GI50 (CAKI-1 renal) | GI50 (RPMI-8226 leukemia) | GI50 (HCC-2998 colon) | GI50 (SR leukemia) | GI50 (SK-MEL-28 melanoma) | GI50 (U251 CNS)
1 | CSc1ccccc1P(CCP(c1ccccc1SC)c1ccccc1SC)c1ccccc1SC | > 90.3 µM | > 55.4 µM | > 100 µM | > 100 µM | > 100 µM | > 88.1 µM | > 100 µM | > 42.6 µM | > 100 µM | > 100 µM | – | – | – | – | – | – | – | – | – | –
2 | CCOC(=O)N1C(=S)C(C(=O)OC)(C(=O)OC)N=C1C | > 100 µM | > 100 µM | > 100 µM | > 100 µM | > 100 µM | > 100 µM | > 100 µM | > 100 µM | > 100 µM | > 100 µM | – | – | – | – | – | – | – | – | – | –
3 | COc1ccc(N2C(=O)C(N3C(=O)C=CC3=O)C2C=O)cc1 (stereo not given) | > 100 µM | > 100 µM | > 100 µM | > 100 µM | > 100 µM | > 100 µM | > 100 µM | > 100 µM | > 100 µM | > 100 µM | – | – | – | – | – | – | – | – | – | –
4 | COc1ccc(NS(=O)c2cccc(C)c2)cc1 (stereo not given) | > 100 µM | – | > 100 µM | > 100 µM | > 100 µM | > 100 µM | 33.6 µM | > 100 µM | > 100 µM | > 100 µM | – | – | – | – | – | – | – | – | – | –
5 | CC(C)CC(NC(=O)C(COc1ccc([N+](=O)[O-])cc1)Cc1ccccc1)C(=O)Nc1ccccc1 (stereo not given) | 24.5 µM | 28.5 µM | > 100 µM | 31.2 µM | 83.8 µM | > 100 µM | 80.2 µM | > 100 µM | – | 28.7 µM | – | – | – | – | – | – | – | – | – | –
6 | COc1ccc(C(C)NNC(=O)c2ccncc2)cc1F (stereo not given) | > 100 µM | > 100 µM | > 100 µM | > 100 µM | > 100 µM | > 100 µM | > 100 µM | > 100 µM | > 100 µM | > 100 µM | – | – | – | – | – | – | – | – | – | –
7 | Cc1ccc2cnc(N)c(C#Cc3cncc(C(=O)Nc4ccc(CN5CCN(C)CC5)c(C(F)(F)F)c4)c3)c2c1 | 1.22 µM | 1.63 µM | 0.864 µM | 0.869 µM | 1.27 µM | 1.97 µM | 1.3 µM | 1.3 µM | 1.25 µM | 1.21 µM | 0.589 µM | 0.869 µM | 0.252 µM | 0.231 µM | 0.627 µM | 0.693 µM | 0.582 µM | 0.162 µM | 0.616 µM | 0.59 µM
8 | O=C1OC2C=CC1C1(CCOC1=O)C2 (stereo not given) | > 100 µM | – | > 100 µM | > 100 µM | > 100 µM | > 100 µM | > 100 µM | > 100 µM | > 100 µM | > 100 µM | – | – | – | – | – | – | – | – | – | –
9 | c1ccc2c(c1)c1c3n2-c2cc(on2)C3CCC1 (stereo not given) | > 100 µM | > 100 µM | > 100 µM | > 100 µM | > 100 µM | > 100 µM | > 100 µM | > 100 µM | > 100 µM | > 100 µM | – | – | – | – | – | – | – | – | – | –
10 | CCCCCCCCCCCCCCCCNc1ccn(C2CC(OP(=O)(O)OCC3OC(n4cc(CC)c(=O)[nH]c4=O)CC3O)C(CO)O2)c(=O)n1 (stereo not given) | 53 µM | 82.1 µM | > 100 µM | > 100 µM | > 100 µM | 38.8 µM | 88 µM | 47.2 µM | 68.3 µM | 89.3 µM | – | – | – | – | – | – | – | – | – | –
11 | C[C@@H]1OCC(O)C([C@H]2OC(c3ccccc3)=N[C@H]2CO)O1 (stereo not given in full) | > 100 µM | > 100 µM | > 100 µM | > 100 µM | > 100 µM | > 100 µM | > 100 µM | > 100 µM | > 100 µM | > 100 µM | – | – | – | – | – | – | – | – | – | –
12 | O=C(C=P(c1ccccc1)(c1ccccc1)c1ccccc1)c1ccc(-c2ccc(F)cc2F)cc1 | 4.08 µM | 8.63 µM | 6.76 µM | – | 5.55 µM | 4.43 µM | 4.12 µM | 7.55 µM | 8.14 µM | 13.9 µM | – | – | – | – | – | – | – | – | – | –
13 | COC(=O)C[C@H](CCSC)NC(=O)C[C@H](CCSC)NC(=O)C[C@H](CCSC)NC(=O)OC(C)(C)C | > 100 µM | 40 µM | > 100 µM | > 100 µM | > 100 µM | > 100 µM | > 100 µM | > 100 µM | > 100 µM | 56 µM | – | – | – | – | – | – | – | – | – | –
14 | C/C(=C\c1ccccc1)C(=O)NCc1ccc(C(=O)NCCc2c[nH]c3ccccc23)cc1 | > 100 µM | > 100 µM | > 100 µM | > 100 µM | > 100 µM | > 100 µM | 96.3 µM | > 100 µM | > 100 µM | > 100 µM | – | – | – | – | – | – | – | – | – | –
15 | CC1(O)C(=O)OC2CC([C@]3(O)CCC4[C@@H]5C[C@H]6O[C@]67[C@@H](O)C=CC(=O)[C@]7(C)C5CC[C@@]43C)C1(C)C2 (stereo not given in full) | > 85.3 µM | > 100 µM | 73.8 µM | > 31.6 µM | 25.4 µM | 19.7 µM | > 100 µM | 10.6 µM | 26 µM | > 72.6 µM | – | – | – | – | – | – | – | – | – | –
16 | COc1ccc(NC(=S)NNC(=O)c2cc(-c3ccccc3)nc3ccccc23)cc1 | 26.3 µM | 15.9 µM | 87.3 µM | > 100 µM | 60 µM | 43.2 µM | 24.6 µM | 9.79 µM | 43.3 µM | 38.5 µM | – | – | – | – | – | – | – | – | – | –
17 | Cc1nn(-c2ccccn2)c2c1C(SC#N)=C(C=O)CC2 | 29.1 µM | 61.5 µM | 29.8 µM | 23.7 µM | 19 µM | 63 µM | 24.2 µM | 34.3 µM | 45.9 µM | 28.8 µM | – | – | – | – | – | – | – | – | – | –
18 | COc1cccc(C2CC(=O)c3cccn32)c1 (stereo not given) | > 100 µM | > 100 µM | > 100 µM | > 100 µM | > 100 µM | > 100 µM | > 100 µM | > 100 µM | > 100 µM | > 100 µM | – | – | – | – | – | – | – | – | – | –
19 | O=S(=O)(O)c1ccc(Nc2ccnc3cc(Cl)ccc23)cc1 | > 100 µM | > 100 µM | > 100 µM | > 100 µM | > 100 µM | > 100 µM | > 100 µM | > 100 µM | > 100 µM | > 100 µM | – | – | – | – | – | – | – | – | – | –
20 | Cc1nnc2sc(-c3ccc([N+](=O)[O-])o3)nn12 | 32.6 µM | 32.7 µM | 23.2 µM | 29.1 µM | 22.3 µM | 34.7 µM | 25 µM | 59.6 µM | – | 27.9 µM | – | – | – | – | – | – | – | – | – | –
